Laboratory results reported in US20190092720A1, “FUNCTIONALIZED BENZAMIDE DERIVATIVES AS ANTIVIRAL AGENTS AGAINST HBV INFECTION” (BARUCH S. BLUMBERG INSTITUTE, priority 2012, published 2019).

Tested on: encapsidated pgRNA
Assay: Encapsidated pgRNA by Northern blot in AML12HBV10 cells
Format: cell-based, Hepatitis B virus (HBV)
Settings: 2 days, FIG. 1 panel C
Method: FIG. 1. Antiviral mechanism of the compounds of the present invention. AML12HBV10 cells were left untreated (NT) or treated with the indicated concentrations of the compounds of the disclosure Compound 6 and Compound 19, respectively, for 2 days. Bay-4109 (3 µM) or AT-61 (25 µM) served as positive controls. (A) Intracellular viral RNA was determined by Northern blot hybridization. Ribosomal RNA served as a loading control. (B) The total amounts of nucleocapsids were determined by a particle gel assay. (C) Encapsidated pgRNA were extracted and measured by Northern blot. (D) Nucleocapsid-associated HBV DNA was quantified by alkaline-treatment of nucleocapsids on the membrane following the particle gel assay and hybridized with a HBV-specific riboprobe. (E) HBV DNA replication intermediates were extracted and determined by Southern blot hybridizations.
Determination of encapsidated pgRNA: AML12HBV10 cells were lysed by addition of 600 μl of lysis buffer (50 mM Tris-HCl [pH 7.5], 1 mM EDTA, 150 mM NaCl, 1% NP-40) into each well of 12-well plates. The nuclei were removed by centrifugation at 5,000 g for 10 minutes. One-half of the sample was mixed with 6 U of micrococcal nuclease (Pharmacia) and 15 μl of 100 mM CaCl2 and incubated for 15 minutes at 37° C. to digest free nucleic acids. The reaction was stopped with 6 μl of 0.5 M EDTA, and capsids were precipitated by adding 125 μl of 35% polyethylene glycol 8000 in 1.75 M NaCl to the reaction and incubating in ice for 30 minutes, followed by centrifugation at 6,000 g for 10 minutes at 4° C. Pellets were re-suspended in 50 μl of TNE buffer (10 mM Tris-HCl [pH 8], 100 mM NaCl, 1 mM EDTA). pgRNA was extracted by the addition of 1 ml of Trizol reagent. The encapsidated pgRNA were electrophoresed through a 2.2 M formaldehyde-1% agarose gel, transferred to a nylon membrane, and immobilized by UV cross-linking (Stratagene). Hybridization was performed with an alpha-^32P-UTP labeled riboprobe specific for plus strand of HBV genome.

Question: `O=C(Nc1cccc(Cl)c1)c1scc2c1OCCO2` [Entry 6] was tested. Which “level of encapsidated pgRNA” value did it give?
Answer: dose-dependently reduced
